Drawing on patent publication US6964975B2, “Isoxazole and thiazole compounds and use thereof as medicine” (Kirin Beer Kabushiki Kaisha, priority 2000, dated 2005), this text covers IC50 for 22 molecules.

The target in one assay is T1, human EDG-2 (Homo sapiens, UniProt Q92633).
T1 construct: cDNA of the cloned human EDG-2 was introduced into pEFneo, which is an animal expression vector; expressed in transfected cells; host or cells: HepG2
In words: Inhibitory activity on LPA-induced elevation of intracellular Ca2+ level. As to conditions: 50% inhibition of elevation of intracellular Ca2+ level by LPA, human EDG-2/HepG2 cells, fura-2. It is filed as cell-based. The method in brief: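 Stably transfected HepG2 cells loaded with fura-2/AM (45 min, room temperature) in 0.1% BSA HEPES buffer. Test compound added before LPA, and the LPA-evoked intracellular Ca2+ rise measured fluorometrically. IC50 for inhibition derived.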

For a further assay, the system named is Human EDG-2/HepG2 cells. Kind of assay: Inhibitory activity on LPA-accelerated [3H] thymidine incorporation (cell proliferation). It is filed as cell-based. The settings on record: 50% inhibition of LPA-induced increase of [3H] thymidine incorporation. The source says:
The human EDG-2 expression plasmid was introduced into HepG2 cells by electroporation. After the introduction, culturing was continued while exchanging selective media every 3 to 4 days, thereby obtaining an expressed colony. Regarding these cells, Ca-influx and cell-proliferation by LPA, level of [^3H] LPA binding and the like were inspected to select a cell line which highly expresses human EDG-2 (human EDG-2/HepG2).
Human EDG-2/HepG2 cells suspended in 10% bovine serum-containing DMEM (Dulbecco's modified eagle medium) were plated on a 96-well plate and, on the next day, the medium was exchanged with serum-free DMEM. 24 hours later, the medium was exchanged with DMEM containing LPA or DMEM containing no LPA, cells were cultured for further 16 hours, and [^3H] thymidine was then added. After culturing for 8 hours subsequent to the addition of [^3H] thymidine, cells were washed with PBS (phosphate-buffered saline), and the amount of [^3H] thymidine incorporated into the cells were assayed by Betaplate filter counter system (Amersham Pharmacia Biotech). The difference between the amount of [^3H] thymidine incorporated in the LPA-added well and the amount of [^3H] thymidine incorporated in the well containing no LPA represents the amount of [^3H] thymidine incorporation accelerated by LPA. […] The test compounds were added immediately before the LPA addition.

T1 sequence (Q92633 whole entry): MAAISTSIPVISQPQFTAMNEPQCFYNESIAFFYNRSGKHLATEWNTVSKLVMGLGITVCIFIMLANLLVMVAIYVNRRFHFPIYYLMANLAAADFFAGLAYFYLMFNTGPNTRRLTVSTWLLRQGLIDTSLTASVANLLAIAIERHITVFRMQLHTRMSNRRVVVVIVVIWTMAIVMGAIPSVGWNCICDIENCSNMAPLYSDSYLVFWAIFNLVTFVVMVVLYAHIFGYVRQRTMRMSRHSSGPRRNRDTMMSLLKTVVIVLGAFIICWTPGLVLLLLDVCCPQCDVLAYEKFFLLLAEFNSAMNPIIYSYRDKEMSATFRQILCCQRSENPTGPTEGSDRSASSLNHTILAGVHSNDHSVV

On to `Cc1noc(-c2ccc(CSCc3ccco3)cc2)c1NC(=O)OC(C)c1ccccc1Cl` (centres unmarked) [Compound 107, 1-(2-Chlorophenyl)ethyl N-[5-(4-{[(2-furylmethyl)sulfanyl]methyl}phenyl)-3-methyl-4-isoxazolyl]carbamate], for which the IC50 at human EDG-2 lay within 3000 to 10000 nM; with Human EDG-2/HepG2 cells, 30 to 100 nM.

Consider `Cc1onc(-c2ccccc2)c1NC(=O)OC(C)c1ccccc1Cl` (centres unmarked) [Compound 4, 1-(2-Chlorophenyl)ethyl N-(5-methyl-3-phenyl-4-isoxazolyl)carbamate], for which the IC50 against human EDG-2 was 3000 nM; in the assay on Human EDG-2/HepG2 cells, 1000 nM.

In the case of `CCCCCNCc1ccc(-c2onc(C)c2NC(=O)OC(C)c2ccccc2Cl)cc1` (centres unmarked) [Compound 109, 1-(2-Chlorophenyl)ethyl N-(3-methyl-5-{4-[(pentylamino)methyl]phenyl}-4-isoxazolyl)carbamate], the figures for the IC50 at human EDG-2 and in the assay on Human EDG-2/HepG2 cells were 10000 to 30000 nM and 1000 to 3000 nM, respectively.

As to `COCc1cccc(-c2onc(C)c2NC(=O)OC(C)c2ccccc2Cl)c1` (centres unmarked) [Compound 128, 1-(2-Chlorophenyl)ethyl N-{5-[3-(methoxymethyl)phenyl]-3-methyl-4-isoxazolyl}carbamate], the IC50 was 3000 to 10000 nM against human EDG-2 and 100 to 300 nM with Human EDG-2/HepG2 cells.

With `Cc1noc(-c2ccc(CSCCCS(=O)(=O)O)cc2)c1NC(=O)OC(C)c1ccccc1Cl` (centres unmarked) [Compound 152, 3-({4-[4-({[1-(2-Chlorophenyl)ethoxy]carbonyl}amino)-3-methyl-5-isoxazolyl]benzyl}-sulfanyl)-1-propanesulfonic acid], the IC50 against human EDG-2 is 3000 to 10000 nM; in the assay on Human EDG-2/HepG2 cells it was 300 nM.

For `Cc1noc(-c2ccc(CSCC(=O)NCc3ccco3)cc2)c1NC(=O)OC(C)c1ccccc1Cl` (centres unmarked) [Compound 139, 1-(2-Chlorophenyl)ethyl N-(5-{4-[({2-[(2-furylmethyl)amino]-2-oxoethyl}sulfanyl)-methyl]phenyl)-3-methyl-4-isoxazolyl)carbamate], the values for the IC50 against human EDG-2 and with Human EDG-2/HepG2 cells were 10000 nM and 30 to 100 nM, respectively.

On to `Cc1onc(-c2ccccc2F)c1NC(=O)OC(C)c1ccccc1Cl` (centres unmarked) [Compound 20, 1-(2-Chlorophenyl)ethyl N-[3-(2-fluorophenyl)-5-methyl-4-isoxazolyl]carbamate], for which the IC50 turned out to be 3000 nM against human EDG-2 and 1000 nM in the assay on Human EDG-2/HepG2 cells.

Regarding `Cc1noc(-c2ccc(CSCCS(=O)(=O)O)cc2)c1NC(=O)OC(C)c1ccccc1Cl` (centres unmarked) [Compound 151, 2-({4-[4-({[1-(2-Chlorophenyl)ethoxy]carbonyl}amino)-3-methyl-5-isoxazolyl]benzyl}-sulfanyl)-1-ethanesulfonic acid], the IC50 against human EDG-2 was 3000 to 10000 nM; in the assay with Human EDG-2/HepG2 cells, 100 nM.

Consider `CCc1noc(-c2ccc(CSCCC(=O)O)cc2)c1NC(=O)OC(C)c1ccccc1Cl` (centres unmarked) [Compound 147, 3-({4-[4-({[1-(2-Chlorophenyl)ethoxy]carbonyl}amino)-3-ethyl-5-isoxazolyl]benzyl}-sulfanyl)propanoic acid], for which the IC50 lay in the range of 3000 to 10000 nM against human EDG-2 and 30 to 100 nM with Human EDG-2/HepG2 cells.

As for `CCSCc1cccc(-c2onc(C)c2NC(=O)OC(C)c2ccccc2Cl)c1` (centres unmarked) [Compound 132, 1-(2-Chlorophenyl)ethyl N-(5-{3-[(ethylsulfanyl)methyl]phenyl}-3-methyl-4-isoxazolyl)carbamate], the IC50 is 3000 nM at human EDG-2 and 300 to 1000 nM in the assay on Human EDG-2/HepG2 cells.

`Cc1noc(-c2ccc(CSc3nnnn3C)cc2)c1NC(=O)OC(C)c1ccccc1Cl` (centres unmarked) [Compound 137, 1-(2-Chlorophenyl)ethyl N-[3-methyl-5-(4-{[(1-methyl-1H-1,2,3,4-tetrazol-5-yl)-sulfanyl]methyl}phenyl)-4-isoxazolyl]carbamate]: the IC50 is 3000 to 10000 nM against human EDG-2 and 100 to 300 nM in the assay on Human EDG-2/HepG2 cells.

As for `Cc1ccsc1-c1onc(C)c1NC(=O)OC(C)c1ccccc1Cl` (centres unmarked) [Compound 67, 1-(2-Chlorophenyl)ethyl N-[3-methyl-5-(3-methyl-2-thienyl)-4-isoxazolyl]carbamate], the values for the IC50 at human EDG-2 and in the assay on Human EDG-2/HepG2 cells were 3000 nM and 1000 nM, respectively.

For `Cc1noc(-c2ccc(CSCCC(=O)O)cc2)c1NC(=O)OC(C)c1ccccc1F` (centres unmarked) [Compound 157, 3-({4-[4-({[1-(2-Fluorophenyl)ethoxy]carbonyl}amino)-3-methyl-5-isoxazolyl]benzyl}-sulfanyl)propanoic acid], the results for the IC50 on human EDG-2 and in the assay with Human EDG-2/HepG2 cells were 3000 nM and 300 to 1000 nM, respectively.

With `Cc1noc(-c2ccc(CSCCC(=O)O)cc2)c1NC(=O)OC(C)c1ccccc1Cl` (centres unmarked) [Compound 126, 3-({4-[4-({[1-(2-Chlorophenyl)ethoxy]carbonyl}amino)-3-methyl-5-isoxazolyl]benzyl}-sulfanyl)propanoic acid], the IC50 fell in the range of 3000 to 10000 nM on human EDG-2 and 10 to 30 nM in the assay on Human EDG-2/HepG2 cells.

Regarding `CCc1noc(-c2ccc(CSCCC(=O)OC)cc2)c1NC(=O)OC(c1ccccc1)C(F)(F)F` (centres unmarked) [Compound 166, Methyl 3-{[4-(3-ethyl-4-{[(2,2,2-trifluoro-1-phenylethoxy)carbonyl]amino}-5-isoxazolyl)-benzyl]sulfanyl}propanoate], the IC50 on human EDG-2 is 10000 nM; in the assay with Human EDG-2/HepG2 cells, 100 nM.

In the case of `COC(=O)CCSCc1ccc(-c2onc(C)c2NC(=O)OC(c2ccccc2)C(F)(F)F)cc1` (centres unmarked) [Compound 162, Methyl 3-{[4-(3-methyl-4-{[(2,2,2-trifluoro-1-phenylethoxy)carbonyl]amino}-5-isoxazolyl)-benzyl]-sulfanyl}propanoate], the results for the IC50 against human EDG-2 and with Human EDG-2/HepG2 cells were 3000 to 10000 nM and 30 to 100 nM, respectively.

Regarding `COC(=O)C[S+]([O-])Cc1ccc(-c2onc(C)c2NC(=O)OC(C)c2ccccc2Cl)cc1` (centres unmarked) [Compound 134, Methyl 2-({4-[4-({[1-(2-chlorophenyl)ethoxy]carbonyl}amino)-3-methyl-5-isoxazolyl]-benzyl}sulfinyl)acetate], the figures for the IC50 at human EDG-2 and in the assay with Human EDG-2/HepG2 cells were 3000 to 10000 nM and 100 to 300 nM, respectively.

With `Cc1cnc(CNCc2ccc(-c3onc(C)c3NC(=O)OC(C)c3ccccc3Cl)cc2)cn1` (centres unmarked) [Compound 114, 1-(2-Chlorophenyl)ethyl N-{3-methyl-5-[4-({[(5-methyl-2-pyrazyl)methyl]amino}-methyl)phenyl]-4-isoxazoly}carbamate], the IC50 at human EDG-2 fell in the range of 10000 to 30000 nM; with Human EDG-2/HepG2 cells, 300 to 1000 nM.

For the molecule `Cc1noc(-c2ccc(CSCCNC(=O)c3ccc[nH]3)cc2)c1NC(=O)OC(C)c1ccccc1Cl` (centres unmarked) [Compound 149, 1-(2-Chlorophenyl)ethyl N-(3-methyl-5-{4-[({2-[(1H-2-pyrrolylcarbonyl)amino]ethyl}-sulfanyl)methyl]phenyl}-4-isoxazolyl)carbamate], the concentration for half-maximal inhibition (IC50) was 10000 to 30000 nM on human EDG-2 and 30 nM in the assay on Human EDG-2/HepG2 cells.

Turning to `Cc1noc(-c2ccc(CSCCO)cc2)c1NC(=O)OC(C)c1ccccc1Cl` (centres unmarked) [Compound 120, 1-(2-Chlorophenyl)ethyl N-[5-(4-{[(2-hydroxyethyl)sulfanyl]methyl}phenyl)-3-methyl-4-isoxazolyl]carbamate], the IC50 lay within 3000 to 10000 nM on human EDG-2 and 100 to 300 nM in the assay on Human EDG-2/HepG2 cells.

For the molecule `Cc1noc(-c2ccc(CNCCF)cc2)c1NC(=O)OC(C)c1ccccc1Cl` (centres unmarked) [Compound 112, 1-(2-Chlorophenyl)ethyl N-[5-(4-{[(2-fluoroethyl)amino]methyl}phenyl)-3-methyl-4-isoxazolyl]carbamate], the values for the IC50 on human EDG-2 and in the assay on Human EDG-2/HepG2 cells were 10000 to 30000 nM and 300 to 1000 nM, respectively.

For `Cc1noc(-c2ccc(C#N)cc2)c1NC(=O)OC(C)c1ccccc1Cl` (centres unmarked) [Compound 47, 1-(2-Chlorophenyl)ethyl N-[5-(4-cyanophenyl)-3-methyl-4-isoxazolyl]carbamate], the IC50 against human EDG-2 worked out at 1000 nM; in the assay on Human EDG-2/HepG2 cells it was 300 nM.
